Measurements as given in article PMC6114103, “17-DMAG inhibits the multiplication of several Babesia species and Theileria equi on in vitro cultures, and Babesia microti in mice” (International Journal for Parasitology: Drugs and Drug …, 2018).

Legend:
[1] = introduction, background statement; ref Jilani et al., 2013; cited from earlier work
MDBK cells = test: cytotoxicity (drug-exposure viability) assay, CCK-8; assay type: cell-based, bovine
Method: (§1) Each medium was supplemented with 10% fetal bovine serum, 0.5% penicillin/streptomycin (Gibco, Life Technologies, USA), and an additional 1% glutamine. The medium was changed every 3–4 days and incubated until approximately 80% confluent. The cells were free from mycoplasma contamination after being checked by staining with DAPI (Sigma-Aldrich, USA). The detachment of cells from the culture flask was done using TrypLE™ Express (Gibco, Life Technologies, USA) after washing two times with Dulbecco's phosphate-buffered saline (DPBS). Subsequently, the counting of viable cells was carried out using a Neubauer improved C-Chip (NanoEntek Inc., Korea) after staining with 0.4% trypan blue solution. The drug-exposure viability assay was performed in accordance with the recommendation of the Cell Counting Kit-8 (CCK-8, Dojindo, Japan). Briefly, the assay was carried out using a 96-well plate at 37 °C in a humidified incubator with 5% CO2. One hundred microliters of cells at a density of 5 × 10^4 cells/ml was seeded per well and allowed to attach to the plate for 24 h. […] The exposure of drugs was carried out for 24 h, followed by the addition of 10 μl of CCK-8. The plate was further incubated for 3 h, and the absorbance was measured at 450 nm using a microplate reader.

[2] = system: B. microti (Munich strain); test: inhibition assay using a B. microti-infected mouse model; assay type: in vivo, BALB/c mice; details: 17-DMAG 30, DA 25, AV 20 mg/kg BW; 17-DMAG + DA 15 + 15, 17-DMAG + AV 15 + 10, DA + AV 15 + 10 mg/kg BW; 5 consecutive days
Method: B. microti (Munich strain) was recovered from -80 °C stock in two 6-week female Balb/c mice (Clea, Japan). The parasitemia was monitored every 2 days. […] The inhibitory effect of 17-DMAG was also determined using a B. microti mouse model according to the previous protocol ([Goo et al., 2010]). Briefly, 35 female BALB/c mice aged 8 weeks received an intraperitoneal injection of 1 × 10^7 of B. microti-infected RBC and were divided into seven groups. Another group consisting of five mice was kept uninfected and untreated as a control. The multiplication of B. microti was observed from blood smears after staining with Giemsa using a light microscope. The drug treatment was initiated to all infected mice on day five, after the parasitemia reached approximately 1%, and continue to the total of five consecutive days. Group 1 was treated with 4% DMSO in saline water as a control intraperitoneally. […] The parasitemia was estimated from Giemsa-stained blood smears using microscopy in approximately 5000 RBC. Furthermore, the hematology profiles including RBC, hemoglobin, and hematocrit were measured from 10 μl of mouse blood using an automatic hematology analyzer (Celltac α MEK-6450, Nihon Kohden, Tokyo, Japan). The rate of parasitemia, hematology profiles, and mouse body weight was monitored for 60 days. The experiment was repeated once so each group contained 10 mice. […] Combination index (CI) values for the drug combination were calculated using CompuSyn software ([Chou, 2006]). […] The differences among groups regarding the parasitemia, hematology profiles, and body weight in the B. microti-infected mouse model were analyzed using Student's t-test, available in GraphPad Prism software. The difference was considered significant if P < 0.05.

[3] = system: B. bigemina (Argentina strain); test: in vitro multiplication inhibition assay (SYBR Green I fluorescence, 96 h), single drugs and two-drug combinations; assay type: cell-based, Babesia bigemina; details: B. bigemina, 96 h, triplicate, mean ± SD; read-out: IC50 on in vitro culture of parasites
Method: (§2) Babesia parasite cultures were maintained using a microaerophilic stationary-phase culture system ([Levy and Ristic, 1980]; [Avarzed et al., 1997]; [Igarashi et al., 1998]). Briefly, bovine Babesia parasites were grown in bovine red blood cells (RBC) in the specific complete medium for each species. The medium for B. bovis (Texas strain) contained GIT medium supplemented with 10% bovine serum, while the medium for B. bigemina (Argentina strain) and B. divergens (Germany strain) was Medium 199 and RPMI 1640 medium, respectively, supplemented with 40% bovine serum ([Rizk et al., 2016]). B. caballi (USDA strain) was grown using equine RBC in GIT medium supplemented with 10% equine serum. T. equi (USDA strain) was grown in equine RBC in M199 medium supplemented with 40% equine serum and hypoxanthine (MP Biomedicals, USA) at a final concentration of 13.6 μg/ml. All of the media included 60 U/ml penicillin G, 60 μg/ml streptomycin, and 0.15 μg/ml amphotericin B (Sigma-Aldrich, USA). The cultures were incubated at 37 °C in a humidified chamber with an atmosphere of 5% CO2, 5% O2, and 90% N2.
(§3) The assays were conducted in accordance with the protocol described previously with modification ([Guswanto et al., 2014]). Briefly, the cultures of B. bovis, B. bigemina, B. divergens, B. caballi, and T. equi with a parasitemia of 8%, 3%, 10%, 4%, and 9%, respectively, were harvested and adjusted to 1% parasitemia with fresh RBC before the inhibition assay. The 60 inner wells of a 96-well plate were used in the assay, while the peripheral wells were filled with sterile distillate water to reduce evaporation during incubation. To each well in triplicate, 2.5 μl of infected RBC (5 μl for B. divergens, B. caballi, and T. equi) was added and mixed with a culture medium containing the drug to a total volume of 100 μl. The stock solution of 17-DMAG, DA, and AV was dissolved in a culture medium at various concentrations using two-fold dilution. A culture medium containing DMSO at a final concentration of 0.2% was added to the well with infected RBC as a positive control and to the well with uninfected RBC as a negative control. Furthermore, a drug combination assay was conducted in parallel with the single drug assay at the constant ratio in accordance with the Chou–Talalay method ([Chou, 2006]). In the same plate with a single drug inhibition assay, a two-drug combination (DA+17-DMAG, DA + AV, and 17-DMAG + AV) at concentrations of 0.25 x IC50, 0.5 x IC50, IC50, 2 x IC50, and 4 x IC50 was added to the well containing infected RBC in triplicate. The plate was incubated in a humidified incubator with 5% CO2, 5% O2, and 90% N2. After 96 h, 100 μl of a lysis buffer containing SYBR Green I was added to each well. The plate was wrapped with aluminum foil to avoid direct light exposure and incubated at room temperature. After incubation for 6 h, fluorescence values were measured using a fluorescence spectrophotometer (Fluoroskan Ascent, Thermo Fisher Scientific, USA) with the excitation and emission wavelength at 485 nm and 518 nm, respectively. The fluorescence data were subtracted from the negative control and used to calculate the IC50.
(§4) The IC50 of 17-DMAG, DA, and AV was calculated from the percentage of inhibition on the in vitro multiplication of all tested species using non-linear regression (curve fit), available in GraphPad Prism (GraphPad Software Inc., USA). Combination index (CI) values for the drug combination were calculated using CompuSyn software ([Chou, 2006]). Since the chemotherapy effect is preferable at the highest inhibition, the degree of synergism was determined as the weighted average of CI values using a formula ((1 x IC50) + (2 x IC75) + (3 x IC90) + (4 x IC95))/10 ([Chou, 2006]). The differences among groups regarding the parasitemia, hematology profiles, and body weight in the B. microti–infected mouse model were analyzed using Student's t-test, available in GraphPad Prism software.

B. caballi (USDA strain) = test: as above; assay type: cell-based, Babesia caballi; details: B. caballi, 96 h, triplicate, mean ± SD; read-out: IC50 on in vitro culture of parasites
Method: as §2, §3, §4

B. bovis (Texas strain) = test: as above; assay type: cell-based, Babesia bovis; details: B. bovis, 96 h, triplicate, mean ± SD; read-out: IC50 on in vitro culture of parasites
Method: as §2, §3, §4

[4] = system: B. divergens (Germany strain); test: as above; assay type: cell-based, Babesia divergens; details: B. divergens, 96 h, triplicate, mean ± SD; read-out: IC50 on in vitro culture of parasites
Method: as §2, §3, §4

NIH/3T3 cells = test: cytotoxicity (drug-exposure viability) assay, CCK-8; assay type: cell-based, mouse
Method: as §1

[5] = at a concentration of 40 μM, separate assay

Row | SMILES | solubility [1] | IC50 (MDBK cells; MDBK, 24 h exposure, CCK-8, read-out: IC50 on cell line MDBK) | inhibition on MDBK cell viability (MDBK cells; [5]) | day p.i. on which parasite no longer detected in blood smears via microscopy (parasite clearance) [2] | IC50 [3] | IC50 (B. caballi (USDA strain)) | IC50 (B. bovis (Texas strain)) | IC50 [4] | IC50 (NIH/3T3 cells; NIH/3T3, 24 h exposure, CCK-8, read-out: IC50 on cell line NIH/3T3) | inhibition on NIH/3T3 cell viability (NIH/3T3 cells; [5])
1 | C=CCNC1=C2C[C@@H](C)C[C@H](OC)[C@H](O)[C@@H](C)/C=C(\C)[C@H](OC(N)=O)[C@@H](OC)/C=C\C=C(/C)C(=O)NC(=CC1=O)C2=O [17-AAG, 17-N-allylamino-17-demethoxygeldanamycin] | poor solubility |  |  |  |  |  |  |  |  | 
2 | CC(=O)NCC(=O)O.CC(=O)NCC(=O)O.N=C(N)c1ccc(N=NNc2ccc(C(=N)N)cc2)cc1 [DA, diminazene aceturate] |  | > 40000 nM | did not show any inhibition | ≤ 28 day p.i. | 1850 ± 104 nM | 13.4 ± 3.6 nM | 190 ± 42.1 nM | 378 ± 39.3 nM | > 40000 nM | did not show any inhibition
3 | COC1=C2C[C@@H](C)C[C@H](OC)[C@H](O)[C@@H](C)/C=C(\C)[C@H](OC(N)=O)[C@@H](OC)/C=C\C=C(/C)C(=O)NC(=CC1=O)C2=O [geldanamycin] | poor solubility |  |  |  |  |  |  |  |  | 
